# Measured values reported in patent US7968526B2, “Antisense oligonucleotides directed to ribonucleotide reductase R2 and uses thereof in the treatment of cancer” (Lorus Therapeutics Inc., priority 2003, dated 2011).
# “Also recorded” adds a separate entry of the source.
# How the values were obtained:
# [1] = Phase I study of SEQ ID NO:1 by continuous intravenous infusion in patients with advanced cancer: toxicity and response
# Procedure: Pharmacokinetic parameters were assessed. SEQ ID NO:1 was administered using a portable infusion pump in cycles of 21 days CVI followed by one week of rest. […] Doses were doubled in cohorts of 1-3 patients until the appearance of Gr 1 toxicity, with subsequent escalation of 20-30% in cohorts of 3 patients. DLT was defined as Gr 4 neutropenia lasting 3 days or with fever; Gr 4 thrombocytopenia (T) or Gr 3 T with Gr 1 bleeding; or Gr 3 non-hematologic toxicity.
# [2] = tested on: BxPC-3 human pancreatic carcinoma cells; assay: BxPC-3 gemcitabine resistant pancreatic carcinoma xenograft in CD-1 nude mice; format: in vivo, human cells in mice; details: Gemcitabine 100 mg/kg i.v. every three days
# Procedure: BxPC-3 is a gemcitabine resistant call line. […] Gemcitabine was administered intravenously every three days at a dose of 100 mg/kg. Antitumour activities were estimated by the inhibition of tumour volume, which was measured with caliper. Each point represents mean tumour volume calculated from 10 animals per experimental group. […] Hela S3 is a hydroxyurea resistant cell line. […] Hydroxyurea was administered intraperitoneally every day at a dose of 250 mg/kg for 10 days. Cisplatin was administered intravenously once a week for three weeks at a dose of 4 mg/kg. Antitumour activities were estimated by the inhibition of tumour volume, which was measured with caliper. Each point represents mean tumour volume calculated from 10 animals per experimental group. […] Cisplatin was administered intravenously once a week for three weeks at a dose of 4 mg/kg. Taxol was administered intravenously once a week for three weeks at a dose of 10 mg/kg. Antitumour activities were estimated by the inhibition of tumour volume, which was measured with caliper. Each point represents mean tumour volume calculated from 10 animals per experimental group. […] Taxol was administered i.p. once a week at a dose of 10 mg/kg. Antitumour activities were estimated by the inhibition of tumour volume (FIG. 12A), which was measured with calipers. Each point represents mean tumour volume calculated from 10 animals per experimental group. Animals were sacrificed and tumour weights taken at the end of the study (FIG. 12C). […] Cisplatin was administered intravenously once a week for four weeks at a dose of 4 mg/kg. Taxol was administered intravenously once a week for four weeks at a dose of 20 mg/kg. Antitumour activities were estimated by the inhibition of tumour volume, which was measured with caliper. Each point represents mean tumour volume calculated from 9-10 animals per experimental group. […] Cisplatin was administered intravenously once a week for four weeks at a dose of 4 mg/kg. Antitumour activities were estimated by the inhibition of tumour volume, which was measured with caliper. Each point represents mean tumour volume calculated from 10 animals per experimental group. At the end of the study the animals were sacrificed and tumours weighed. […] Taxol was administered i.p. once a week at a dose of 10 mg/kg. Anti-tumour activity was estimated by the inhibition of tumour volume, which was measured with caliper. Each point represents mean tumour volume calculated from 10 animals per experimental group. […] Antitumour activities were estimated by the inhibition of tumour volume, which was measured with caliper. Each point represents mean tumour volume calculated from 10 animals per experimental group. Tumour weights were measured after animals were sacrificed at the end of the treatment. […]
# [3] = tested on: MDA-MB435-To.1 human Taxol-resistant breast adenocarcinoma cells; assay: MDA-MB435-To.1 Taxol-resistant breast adenocarcinoma, fat pad, SCID mice (2.5); format: in vivo, human cells in mice
# Procedure: BxPC-3 is a gemcitabine resistant call line. […] Gemcitabine was administered intravenously every three days at a dose of 100 mg/kg. Antitumour activities were estimated by the inhibition of tumour volume, which was measured with caliper. Each point represents mean tumour volume calculated from 10 animals per experimental group. […] Hela S3 is a hydroxyurea resistant cell line. […] Hydroxyurea was administered intraperitoneally every day at a dose of 250 mg/kg for 10 days. Cisplatin was administered intravenously once a week for three weeks at a dose of 4 mg/kg. Antitumour activities were estimated by the inhibition of tumour volume, which was measured with caliper. Each point represents mean tumour volume calculated from 10 animals per experimental group. […] Cisplatin was administered intravenously once a week for three weeks at a dose of 4 mg/kg. Taxol was administered intravenously once a week for three weeks at a dose of 10 mg/kg. Antitumour activities were estimated by the inhibition of tumour volume, which was measured with caliper. Each point represents mean tumour volume calculated from 10 animals per experimental group. […] Taxol was administered i.p. once a week at a dose of 10 mg/kg. Antitumour activities were estimated by the inhibition of tumour volume (FIG. 12A), which was measured with calipers. Each point represents mean tumour volume calculated from 10 animals per experimental group. Animals were sacrificed and tumour weights taken at the end of the study (FIG. 12C). […] Cisplatin was administered intravenously once a week for four weeks at a dose of 4 mg/kg. Taxol was administered intravenously once a week for four weeks at a dose of 20 mg/kg. Antitumour activities were estimated by the inhibition of tumour volume, which was measured with caliper. Each point represents mean tumour volume calculated from 9-10 animals per experimental group. […] Cisplatin was administered intravenously once a week for four weeks at a dose of 4 mg/kg. Antitumour activities were estimated by the inhibition of tumour volume, which was measured with caliper. Each point represents mean tumour volume calculated from 10 animals per experimental group. At the end of the study the animals were sacrificed and tumours weighed. […] Taxol was administered i.p. once a week at a dose of 10 mg/kg. Anti-tumour activity was estimated by the inhibition of tumour volume, which was measured with caliper. Each point represents mean tumour volume calculated from 10 animals per experimental group. In addition animals were sacrificed and tumour weights taken at the end of the study. […] CPT-11 was administered i.p. for 5 days at a dose of 20 mg/kg/day. Antitumour activities were estimated by the inhibition of tumour volume, which was measured with caliper. Each point represents mean tumour volume calculated from 10 animals per experimental group. Tumour weights were measured after animals were sacrificed at the end of the treatment. These cells are not resistant to CPT-11 which was used as a positive control.
# [4] = Cycle 1, 18.5 mg/m^2/day 21 day CVI, 2 patients
# [5] = Cycle 1, 74 mg/m^2/day 21 day CVI, 1 patient
# [6] = Cycle 1, 148 mg/m^2/day 21 day CVI, 6 patients
# [7] = Cycle 1, 185 mg/m^2/day 21 day CVI, 9 patients
# [8] = Cycle 1, 222 mg/m^2/day 21 day CVI, 7 patients
substance,measurement,setting,value
"5′-GGCTAAATCGCTCCACCAAG-3′ (all phosphorothioate, sugars by position and methylation of C not given here) [SEQ ID NO: 1, fully phosphorothioated antisense oligonucleotide that hybridizes to the coding region of R2 mRNA]",DLT: Gr 3 fatigue,[1]; 148 mg/m^2/day,1/6
same,Tolerability at the recommended phase II dose,[1]; 185 mg/m^2/day,well tolerated by 11 patients
same,DLT: Gr 4 transaminase elevation,[1]; 222 mg/m^2/day,2/6
same,recommended phase II dose,[1]; 21 days CVI followed by one week of rest,185 mg/m^2/day
same,maximum tolerated dose (MTD),"[1]; 21 days CVI followed by one week of rest, patients with advanced malignancies",222 mg/m^2/day
same,No. of Patients with Grade of Toxicity: Anorexia Grade 1,[1]; [4],1
same,No. of Patients with Grade of Toxicity: Fatigue Grade 1,[1]; [4],1
same,No. of Patients with Grade of Toxicity: Anorexia Grade 1,[1]; [5],1
same,No. of Patients with Grade of Toxicity: Fatigue Grade 1,[1]; [5],1
same,No. of Patients with Grade of Toxicity: Nausea Grade 1,[1]; [5],1
same,No. of Patients with DLT (Table 10),[1]; [6],1
same,No. of Patients with Grade of Toxicity: Anorexia Grade 1,[1]; [6],1
same,No. of Patients with Grade of Toxicity: Anorexia Grade 2,[1]; [6],1
same,No. of Patients with Grade of Toxicity: Fatigue Grade 1,[1]; [6],1
same,No. of Patients with Grade of Toxicity: Fatigue Grade 2,[1]; [6],1
same,No. of Patients with Grade of Toxicity: Fatigue Grade 3 (*DLT),[1]; [6],1*
same,No. of Patients with Grade of Toxicity: Nausea Grade 2,[1]; [6],1
same,No. of Patients with Grade of Toxicity: Neutropenia Grade 3,[1]; [6],1
same,No. of Patients with Grade of Toxicity: Anorexia Grade 1,[1]; [7],2
same,No. of Patients with Grade of Toxicity: Fatigue Grade 1,[1]; [7],3
same,No. of Patients with Grade of Toxicity: Fatigue Grade 2,[1]; [7],2
same,No. of Patients with Grade of Toxicity: Nausea Grade 1,[1]; [7],3
same,No. of Patients with DLT (Table 11),[1]; [8],2
same,No. of Patients with Grade of Toxicity: Anemia Grade 2,[1]; [8],2
same,No. of Patients with Grade of Toxicity: Anorexia Grade 2,[1]; [8],1
same,No. of Patients with Grade of Toxicity: Bilirubin Grade 2,[1]; [8],1
same,No. of Patients with Grade of Toxicity: Bilirubin Grade 4 (*DLT),[1]; [8],1*
same,No. of Patients with Grade of Toxicity: Fatigue Grade 1,[1]; [8],3
same,No. of Patients with Grade of Toxicity: Fatigue Grade 2,[1]; [8],1
same,No. of Patients with Grade of Toxicity: Nausea Grade 1,[1]; [8],3
same,No. of Patients with Grade of Toxicity: Neutropenia Grade 2,[1]; [8],1
same,No. of Patients with Grade of Toxicity: Rash Grade 2,[1]; [8],1
same,No. of Patients with Grade of Toxicity: Transaminases Grade 2,[1]; [8],1
same,No. of Patients with Grade of Toxicity: Transaminases Grade 4 (*DLT),[1]; [8],2*
same,Hematologic toxicity,[1]; doses 18.5 to 222 mg/m^2/day,mild
same,Number of DLTs observed,[1]; doses 18.5 to 222 mg/m^2/day,Three DLTs were observed in 25 patients assessable for toxicity
same,Other serious toxicities: Gr 3 non-neutropenic infection,[1]; doses 18.5 to 222 mg/m^2/day,2 patients
same,Other serious toxicities: bowel obstruction,[1]; doses 18.5 to 222 mg/m^2/day,1 patient
same,common (Gr 1-2) non-hematologic toxicities: anorexia,[1]; doses 18.5 to 222 mg/m^2/day,42%
same,common (Gr 1-2) non-hematologic toxicities: fatigue,[1]; doses 18.5 to 222 mg/m^2/day,69%
same,common (Gr 1-2) non-hematologic toxicities: nausea,[1]; doses 18.5 to 222 mg/m^2/day,38%
same,Tumour response: stable disease,"[1]; patients with advanced cancer, after 2 cycles",Four patients had stable disease (SD) after 2 cycles
same,Tumour weight as % of saline control,"[2]; BxPC-3 (pancreatic), Gemcitabine resistant, CD-1, SEQ ID NO:1 10 mg/kg i.v. every other day 17 times",5.8%
same,"Antitumour effect (tumour volume, FIG. 9)","[2]; BxPC-3 gemcitabine resistant, CD-1 nude mice, SEQ ID NO:1 10 mg/kg i.v. every other day",significant delay of tumour growth compared to saline control
same,Tumour weight as % of saline control,"[3]; MDA-MB435-To.1 (breast), Taxol resistant, SCID, SEQ ID NO:1 10 mg/kg i.v. every other day 15 times, Taxol 20 mg/kg, Cisplatin 4 mg/kg i.v. weekly x4",42%
same,Antitumour effect (FIG. 13),"[3]; MDA-MB435-To.1 Taxol-resistant, SCID mice, SEQ ID NO:1 10 mg/kg i.v. every other day, Cisplatin 4 mg/kg, Taxol 20 mg/kg i.v. weekly",significant reduction of tumour weight compared to saline control; also recorded: superior to the inhibitory effects observed with Cisplatin
